Data from ChEMBL document CHEMBL4680222, “Sensitive fluorogenic substrates for sirtuin deacylase inhibitor discovery” (Eur J Med Chem, 2020).
*1 amine or outer side, *2 acyl side, *3 side chain or, on linkers, in order; H or OH if unused. Where a SMILES comes first, the peptide text is derived from it. The star is where a group is joined. AMC = Cc1cc(=O)oc2cc(N*)ccc12; Suc = O=C(CCC(=O)[*:2])[*:1]

Assays:
[1] = target: NAD-dependent protein deacylase sirtuin-5, mitochondrial (Homo sapiens) (UniProt Q9NXA8); assay: Substrate activity at human N-terminal His-tagged SIRT5 (34 to 302 residues) expressed in Escherichia coli at 0.5 uM measured after 2 hrs in presence of NAD+ and trypsin by fluorescence assay
[2] = target: T1, NAD-dependent protein deacetylase sirtuin-7 (Homo sapiens) (UniProt Q9NRC8); assay: Substrate activity at human N-terminal His-tagged SIRT7 (68 to 354 residues) expressed in Escherichia coli at 0.5 uM measured after 2 hrs in presence of NAD+ and trypsin by fluorescence assay
T1 sequence (whole entry): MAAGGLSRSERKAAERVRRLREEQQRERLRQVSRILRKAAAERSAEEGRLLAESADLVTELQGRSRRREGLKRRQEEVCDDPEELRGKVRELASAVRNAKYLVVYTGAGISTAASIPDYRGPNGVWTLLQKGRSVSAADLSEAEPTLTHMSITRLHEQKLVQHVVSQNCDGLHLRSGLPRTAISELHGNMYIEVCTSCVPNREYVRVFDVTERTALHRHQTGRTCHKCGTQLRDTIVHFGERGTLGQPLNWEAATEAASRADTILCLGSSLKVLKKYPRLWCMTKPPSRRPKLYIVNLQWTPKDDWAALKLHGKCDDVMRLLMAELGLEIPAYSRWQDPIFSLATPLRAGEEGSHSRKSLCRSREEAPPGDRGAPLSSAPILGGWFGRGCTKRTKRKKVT

[3] = target: NAD-dependent protein deacylase sirtuin-6 (Homo sapiens) (UniProt Q8N6T7); assay: Substrate activity at human N-terminal His-tagged SIRT6 (1 to 355 residues) expressed in Escherichia coli at 50 uM measured after 2 hrs in presence of NAD+ and trypsin by fluorescence assay
[4] = target: T2, NAD-dependent protein deacetylase sirtuin-2 (Homo sapiens) (UniProt Q8IXJ6); assay: Substrate activity at human N-terminal His-tagged SIRT2 (56 to 356 residues) expressed in Escherichia coli at 5 uM measured after 2 hrs in presence of NAD+ and trypsin by fluorescence assay
T2 sequence (whole entry): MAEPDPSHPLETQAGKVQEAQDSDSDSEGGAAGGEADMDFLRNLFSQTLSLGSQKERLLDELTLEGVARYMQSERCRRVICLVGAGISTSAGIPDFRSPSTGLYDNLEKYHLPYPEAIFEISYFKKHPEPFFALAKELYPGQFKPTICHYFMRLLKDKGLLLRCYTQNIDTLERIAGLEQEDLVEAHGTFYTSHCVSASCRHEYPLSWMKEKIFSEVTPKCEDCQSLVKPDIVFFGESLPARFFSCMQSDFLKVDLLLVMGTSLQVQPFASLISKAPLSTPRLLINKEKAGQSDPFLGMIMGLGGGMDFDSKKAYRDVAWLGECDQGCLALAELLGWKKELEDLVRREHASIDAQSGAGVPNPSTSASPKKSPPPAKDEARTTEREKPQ

[5] = target: T3, NAD-dependent protein deacetylase sirtuin-1 (Homo sapiens) (UniProt Q96EB6); assay: Substrate activity at human N-terminal His-tagged SIRT1 (183 to 664 residues) expressed in Escherichia coli at 5 uM measured after 2 hrs in presence of NAD+ and trypsin by fluorescence assay
T3 sequence (whole entry): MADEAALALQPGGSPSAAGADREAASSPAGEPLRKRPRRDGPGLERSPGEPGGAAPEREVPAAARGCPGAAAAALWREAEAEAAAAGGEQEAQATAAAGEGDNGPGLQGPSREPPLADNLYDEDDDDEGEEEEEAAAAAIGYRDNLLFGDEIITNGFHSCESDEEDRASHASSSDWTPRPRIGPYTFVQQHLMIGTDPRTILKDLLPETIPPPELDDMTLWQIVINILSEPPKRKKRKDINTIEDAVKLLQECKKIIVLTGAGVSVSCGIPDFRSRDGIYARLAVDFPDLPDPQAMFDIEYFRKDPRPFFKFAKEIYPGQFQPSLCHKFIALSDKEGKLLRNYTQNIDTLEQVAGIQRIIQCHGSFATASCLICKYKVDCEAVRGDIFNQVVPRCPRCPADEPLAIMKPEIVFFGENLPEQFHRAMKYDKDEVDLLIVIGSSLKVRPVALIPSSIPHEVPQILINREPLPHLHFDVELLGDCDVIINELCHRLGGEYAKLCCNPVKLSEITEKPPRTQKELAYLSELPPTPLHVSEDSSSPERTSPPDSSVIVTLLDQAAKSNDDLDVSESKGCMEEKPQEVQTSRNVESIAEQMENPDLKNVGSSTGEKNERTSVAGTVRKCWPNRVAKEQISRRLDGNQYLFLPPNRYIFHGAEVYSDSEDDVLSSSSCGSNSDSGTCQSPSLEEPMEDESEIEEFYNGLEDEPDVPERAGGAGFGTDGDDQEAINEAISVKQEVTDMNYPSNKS

[6] = target: T4, NAD-dependent protein deacetylase sirtuin-3, mitochondrial (Homo sapiens) (UniProt Q9NTG7); assay: Substrate activity at human N-terminal His-tagged SIRT3 (122 to 391 residues) expressed in Escherichia coli at 50 uM measured after 2 hrs in presence of NAD+ and trypsin by fluorescence assay
T4 sequence (whole entry): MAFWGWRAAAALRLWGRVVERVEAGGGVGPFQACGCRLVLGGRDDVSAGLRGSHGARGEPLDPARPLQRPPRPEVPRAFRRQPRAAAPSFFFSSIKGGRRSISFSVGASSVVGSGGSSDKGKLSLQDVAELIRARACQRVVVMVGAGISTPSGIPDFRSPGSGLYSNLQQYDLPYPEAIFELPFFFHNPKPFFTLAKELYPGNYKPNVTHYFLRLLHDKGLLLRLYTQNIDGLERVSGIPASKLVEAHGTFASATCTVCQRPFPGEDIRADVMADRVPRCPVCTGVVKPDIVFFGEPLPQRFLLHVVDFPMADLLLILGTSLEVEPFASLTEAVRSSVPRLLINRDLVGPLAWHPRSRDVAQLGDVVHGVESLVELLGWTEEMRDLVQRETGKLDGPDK

[7] = target: NAD-dependent protein deacylase sirtuin-5, mitochondrial (Homo sapiens) (UniProt Q9NXA8); assay: Substrate activity at human N-terminal His-tagged SIRT5 (34 to 302 residues) expressed in Escherichia coli at 5 uM measured after 2 hrs in presence of NAD+ and trypsin by fluorescence assay
[8] = target: T3, NAD-dependent protein deacetylase sirtuin-1 (Homo sapiens); assay: Substrate activity at human N-terminal His-tagged SIRT1 (183 to 664 residues) expressed in Escherichia coli at 50 uM measured after 2 hrs in presence of NAD+ and trypsin by fluorescence assay
[9] = target: T4, NAD-dependent protein deacetylase sirtuin-3, mitochondrial (Homo sapiens); assay: Substrate activity at human N-terminal His-tagged SIRT3 (122 to 391 residues) expressed in Escherichia coli at 5 uM measured after 2 hrs in presence of NAD+ and trypsin by fluorescence assay
[10] = target: NAD-dependent protein deacylase sirtuin-5, mitochondrial (Homo sapiens) (UniProt Q9NXA8); assay: Substrate activity at human N-terminal His-tagged SIRT5 (34 to 302 residues) expressed in Escherichia coli at 50 uM measured after 2 hrs in presence of NAD+ and trypsin by fluorescence assay
[11] = target: T4, NAD-dependent protein deacetylase sirtuin-3, mitochondrial (Homo sapiens); assay: Substrate activity at human N-terminal His-tagged SIRT3 (122 to 391 residues) expressed in Escherichia coli at 0.5 uM measured after 2 hrs in presence of NAD+ and trypsin by fluorescence assay
[12] = target: NAD-dependent protein deacylase sirtuin-6 (Homo sapiens) (UniProt Q8N6T7); assay: Substrate activity at human N-terminal His-tagged SIRT6 (1 to 355 residues) expressed in Escherichia coli at 0.5 uM measured after 2 hrs in presence of NAD+ and trypsin by fluorescence assay
[13] = target: T2, NAD-dependent protein deacetylase sirtuin-2 (Homo sapiens); assay: Substrate activity at human N-terminal His-tagged SIRT2 (56 to 356 residues) expressed in Escherichia coli at 0.5 uM measured after 2 hrs in presence of NAD+ and trypsin by fluorescence assay
[14] = target: NAD-dependent protein deacylase sirtuin-6 (Homo sapiens) (UniProt Q8N6T7); assay: Substrate activity at human N-terminal His-tagged SIRT6 (1 to 355 residues) expressed in Escherichia coli at 5 uM measured after 2 hrs in presence of NAD+ and trypsin by fluorescence assay
[15] = target: T1, NAD-dependent protein deacetylase sirtuin-7 (Homo sapiens); assay: Substrate activity at human N-terminal His-tagged SIRT7 (68 to 354 residues) expressed in Escherichia coli at 5 uM measured after 2 hrs in presence of NAD+ and trypsin by fluorescence assay
[16] = target: T2, NAD-dependent protein deacetylase sirtuin-2 (Homo sapiens); assay: Substrate activity at human N-terminal His-tagged SIRT2 (56 to 356 residues) expressed in Escherichia coli at 50 uM measured after 2 hrs in presence of NAD+ and trypsin by fluorescence assay
[17] = target: T3, NAD-dependent protein deacetylase sirtuin-1 (Homo sapiens); assay: Substrate activity at human N-terminal His-tagged SIRT1 (183 to 664 residues) expressed in Escherichia coli at 0.5 uM measured after 2 hrs in presence of NAD+ and trypsin by fluorescence assay
[18] = target: T1, NAD-dependent protein deacetylase sirtuin-7 (Homo sapiens); assay: Substrate activity at human N-terminal His-tagged SIRT7 (68 to 354 residues) expressed in Escherichia coli at 50 uM measured after 2 hrs in presence of NAD+ and trypsin by fluorescence assay

NAD-dependent protein deacylase sirtuin-5, mitochondrial (Homo sapiens), sequence (Q9NXA8 37-310 limits assumed): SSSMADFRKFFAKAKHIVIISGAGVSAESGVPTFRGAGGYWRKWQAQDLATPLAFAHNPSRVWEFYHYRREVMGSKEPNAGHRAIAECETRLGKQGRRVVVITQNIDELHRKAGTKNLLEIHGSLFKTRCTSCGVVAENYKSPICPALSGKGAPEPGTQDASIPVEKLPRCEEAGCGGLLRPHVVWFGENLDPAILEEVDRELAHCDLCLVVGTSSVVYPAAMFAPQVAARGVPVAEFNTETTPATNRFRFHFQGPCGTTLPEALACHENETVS
NAD-dependent protein deacylase sirtuin-6 (Homo sapiens), sequence (Q8N6T7 whole entry, the tested form may be a part): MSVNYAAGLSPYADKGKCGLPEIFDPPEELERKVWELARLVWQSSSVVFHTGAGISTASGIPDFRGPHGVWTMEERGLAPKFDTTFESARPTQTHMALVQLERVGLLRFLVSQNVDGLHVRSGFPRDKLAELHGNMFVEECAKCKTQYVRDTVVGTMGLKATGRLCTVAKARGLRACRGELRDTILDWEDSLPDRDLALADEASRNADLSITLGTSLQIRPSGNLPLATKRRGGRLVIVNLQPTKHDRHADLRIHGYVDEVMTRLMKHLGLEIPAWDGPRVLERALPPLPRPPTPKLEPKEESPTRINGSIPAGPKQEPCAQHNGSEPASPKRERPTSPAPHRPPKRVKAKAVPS

Structure (SMILES) | Activity [1] | Activity [2] | Activity [3] | Activity [4] | Activity [5] | Activity [6] | Activity [7] | Activity [8] | Activity [9] | Activity [10] | Activity [11] | Activity [12] | Activity [13] | Activity [14] | Activity [15] | Activity [16] | Activity [17] | Activity [18]
CC[C@H](C)[C@H](NC(=O)[C@H](CC(C)C)NC(=O)[C@H](CCCNC(=N)N)NC(C)=O)C(=O)N[C@@H](CCCCNC(C)=O)C(=O)Nc1ccc2c(C)cc(=O)oc2c1 (Ac-RLIK(Ac)-{AMC}) | 0.22 RFU | 0.27 RFU | 0.71 RFU | 4.96 RFU | 18.3 RFU | 28.2 RFU | 0.27 RFU | 24.1 RFU | 14.2 RFU | 0.98 RFU | 2.66 RFU | 0.45 RFU | 0.66 RFU | 0.32 RFU | 3.2 RFU | 32.5 RFU | 0.66 RFU | 0.71 RFU
CC[C@H](C)[C@H](NC(C)=O)C(=O)N[C@@H](CCCNC(=N)N)C(=O)N[C@H](C(=O)N[C@@H](CCCCNC(=O)CCC(=O)O)C(=O)Nc1ccc2c(C)cc(=O)oc2c1)[C@@H](C)CC (Ac-IRIK(Suc)-{AMC}) | 0.32 RFU | 0.29 RFU | 1.89 RFU | 0.33 RFU | 0.55 RFU | 2.47 RFU | 0.82 RFU | 2.05 RFU | 0.64 RFU | 2.63 RFU | 0.49 RFU | 0.4 RFU | 0.21 RFU | 0.44 RFU | 0.34 RFU | 1.03 RFU | 0.21 RFU | 1.89 RFU
CC(=O)NCCCC[C@H](NC(=O)[C@H](CCCNC(=N)N)NC(=O)[C@H](CO)NC(=O)[C@H](CC(N)=O)NC(C)=O)C(=O)Nc1ccc2c(C)cc(=O)oc2c1 (Ac-NSRK(Ac)-{AMC}) | 0.27 RFU | 0.38 RFU | 0.44 RFU | 0.24 RFU | 0.37 RFU | 0.67 RFU | 0.28 RFU | 1.21 RFU | 0.41 RFU | 1.02 RFU | 0.34 RFU | 0.49 RFU | 0.23 RFU | 0.36 RFU | 0.32 RFU | 0.52 RFU | 0.23 RFU | 0.44 RFU
